Values after ≈ are worked out from the molar mass of the structure shown.
Key:
MRSA-1094 (MDR) = assay type: cell-based; details: Staphylococcus aureus; MRSA-1094 (MDR); read-out: MIC
[1] = system: S. aureus ATCC 25923 (MSSA. osteomyelitis isolate); assay type: cell-based; details: Staphylococcus aureus; S. aureus ATCC 25923 (MSSA); read-out: MIC
MRSA USA 300 (BAA-1717) = assay type: cell-based; details: Staphylococcus aureus; MRSA USA 300 (BAA-1717); read-out: MIC
[2] = system: E. coli (700, TolC+) efflux pos; assay type: cell-based; details: Escherichia coli; E. coli (700, TolC+) efflux pos; read-out: MIC
E. coli TolC(−) [3] = experiment: TolC(−) MIC (NB); assay type: cell-based; details: Escherichia coli, read-out: TolC(−) MIC (μM)(NB)
[4] = Mammalian cell cytotoxicity
[5] = Aqueous solubility, nephelometry; details: water, kinetic from dmso stock
[6] = system: S. aureus (MRSA-1234547263, Cip-res); assay type: cell-based; details: Staphylococcus aureus; S. aureus (MRSA-1234547263, Cip-res); read-out: MIC
[7] = system: S. aureus (ATCC 35556, spec, kan-res); assay type: cell-based; details: Staphylococcus aureus, ATCC35556
[8] = system: S. aureus NRS-77 (spec-res); assay type: cell-based; details: Staphylococcus aureus, NRS77; S. aureus NRS-77 (spec-res); read-out: MIC
[9] = system: S. aureus WTBF-19 (MSSA. osteomyelitis isolate); assay type: cell-based; details: Staphylococcus aureus; S. aureus WTBF-19 (MSSA); read-out: MIC
MRSA N315 NRS-70 = assay type: cell-based; details: Staphylococcus aureus; MRSA N315 NRS-70; read-out: MIC
S. pneumoniae 49619 = assay type: cell-based; details: Streptococcus pneumoniae; S. pneumoniae 49619; read-out: MIC
M. pneumoniae 15531 = assay type: cell-based; details: Mycoplasmoides pneumoniae; M. pneumoniae 15531; read-out: MIC
N. gonorrhoeae 49226 = assay type: cell-based; details: Neisseria gonorrhoeae; N. gonorrhoeae 49226; read-out: MIC
[10] = system: Moraxella catarrhalis 8176; assay type: cell-based; details: read-out: MIC
[11] = system: Legionella pneumophila 33153; experiment: microbe, parasite or virus in culture; assay type: cell-based
[12] = system: Haemophilus influenza 35056; assay type: cell-based; details: Haemophilus influenza 35056; read-out: MIC
Caco-2 permeability = assay type: in vitro ADME; details: human, direction not given
Description: Res., 15(5): 726-733 (1998).

Mouse serum stability = details: 5 μM, 37° C., 4 h
[13] = Microsomal stability + NADPH; details: mouse liver microsomes, 0.5 hr at 37° C.
[14] = Mouse serum binding, equilibrium dialysis
E. coli TolC(−) [15] = details: MIC in the presence of 10% fetal calf serum versus without

Structure (SMILES) | MIC (MRSA-1094 (MDR)) | MIC [1] | MIC [2] | MIC (E. coli TolC(−) [3]) | CC50 [4] | solubility [5] | Serum Stability (% remain) (Mouse serum stability) | Microsomal Stability + NADPH % degraded [13] | fraction unbound [14] | Fold Serum Shift vs. TolC(−) (E. coli TolC(−) [15]) | further results
CCN(c1ccccc1)c1ccc(C(=O)Nc2nnc(-c3ccc(F)cc3)o2)cc1 [compound 4285] | 2.52 µg/mL (≈ 6.26 µM) | 6.34 µg/mL (≈ 15.8 µM) | > 40 µg/mL | 2.48 µM (≈ 0.998 µg/mL) | 59.9 µM | 3.12 µM (≈ 1.26 µg/mL) |  |  |  |  | MIC (MRSA USA 300 (BAA-1717)): 0.63 µg/mL (≈ 1.57 µM)
CC(C)(C)OC(=O)N1CC(Oc2ccc(C(=O)Nc3nnc(-c4ccc(F)cc4)o3)cc2)C1 [compound 4288] | 5.68 µg/mL (≈ 12.5 µM) | 7.16 µg/mL (≈ 15.8 µM) | > 45 µg/mL | 3.51 µM (≈ 1.59 µg/mL) | 6.6 µM | 25 µM (≈ 11.4 µg/mL) |  |  |  |  | MIC (MRSA USA 300 (BAA-1717)): 2.01 µg/mL (≈ 4.42 µM)
O=C(Nc1nnc(-c2ccc(F)cc2)o1)c1ccc(OC2CCCCC2)cc1 [compound 4292] | 0.75 µg/mL (≈ 1.97 µM) | 1.23 µg/mL (≈ 3.22 µM) | > 39 µg/mL | 1.1 µM (≈ 0.421 µg/mL) | 23.7 µM | 6.25 µM (≈ 2.38 µg/mL) | 82% | 20% | < 0.01 |  | MIC [6]: 0.67 µg/mL (≈ 1.76 µM); MIC [7]: 0.95 µg/mL (≈ 2.49 µM); MIC [8]: 1.17 µg/mL (≈ 3.07 µM); MIC [9]: 1.19 µg/mL (≈ 3.12 µM); MIC (MRSA USA 300 (BAA-1717)): 0.3 µg/mL (≈ 0.787 µM); MIC (MRSA N315 NRS-70): 1.36 µg/mL (≈ 3.57 µM); MIC (S. pneumoniae 49619): 4.77 µg/mL (≈ 12.5 µM); MIC (M. pneumoniae 15531): 19.1 µg/mL (≈ 50.1 µM); MIC (N. gonorrhoeae 49226): 0.1 µg/mL (≈ 0.262 µM); MIC [10]: < 0.02 µg/mL; MIC [11]: 0.61 µg/mL (≈ 1.6 µM); MIC [12]: > 39 µg/mL; Papp (Caco-2 permeability): 1 ×10⁻⁶ cm/s
O=C(Nc1nnc(-c2ccc(F)cc2)o1)c1ccc(OC2CCCC2)cc1 [compound 4293] | 0.72 µg/mL (≈ 1.96 µM) | 1.15 µg/mL (≈ 3.13 µM) | > 36 µg/mL | 1.39 µM (≈ 0.511 µg/mL) | 31.8 µM | 3.12 µM (≈ 1.15 µg/mL) | 88% | 59% | 0.001 |  | MIC (MRSA USA 300 (BAA-1717)): 0.29 µg/mL (≈ 0.789 µM); MIC (S. pneumoniae 49619): 4.59 µg/mL (≈ 12.5 µM); MIC (M. pneumoniae 15531): 18.4 µg/mL (≈ 50.1 µM); MIC (N. gonorrhoeae 49226): 0.09 µg/mL (≈ 0.245 µM); MIC [10]: < 0.02 µg/mL; MIC [11]: 0.59 µg/mL (≈ 1.61 µM); MIC [12]: 12.2 µg/mL (≈ 33.3 µM)
O=C(Nc1nnc(-c2ccc(F)cc2)o1)c1ccc(Oc2cccc(O)c2)cc1 [compound 4304] |  |  |  | 3.51 µM (≈ 1.37 µg/mL) | > 100 µM | 50 µM (≈ 19.6 µg/mL) |  | 85% | < 0.01 | 28.5 fold | Papp (Caco-2 permeability): 13.7 ×10⁻⁶ cm/s
Cc1ccccc1Oc1ccc(C(=O)Nc2nnc(-c3ccc(F)cc3)o2)cc1 [compound 4307] |  |  |  | 1.56 µM (≈ 0.608 µg/mL) | 65 µM | 12.5 µM (≈ 4.87 µg/mL) |  | <30% |  |  | 
Cc1cc(C)cc(Oc2ccc(C(=O)Nc3nnc(-c4ccc(F)cc4)o3)cc2)c1 [compound 4308] |  |  |  | 1.56 µM (≈ 0.63 µg/mL) | 32 µM | 3.13 µM (≈ 1.26 µg/mL) |  | <30% |  |  | 
COc1cccc(Oc2ccc(C(=O)Nc3nnc(-c4ccc(F)cc4)o3)cc2)c1 [compound 4309] |  |  |  | 0.984 µM (≈ 0.399 µg/mL) | > 100 µM | 6.25 µM (≈ 2.53 µg/mL) |  | <30% |  |  | 
COc1ccc(Oc2ccc(C(=O)Nc3nnc(-c4ccc(F)cc4)o3)cc2)cc1 [compound 4310] |  |  |  | 0.781 µM (≈ 0.317 µg/mL) | > 100 µM | 6.25 µM (≈ 2.53 µg/mL) |  | <30% |  |  | 
O=C(Nc1nnc(-c2ccc(F)cc2)o1)N1Cc2ccccc2C1 [compound 4330] | 2.03 µg/mL (≈ 6.26 µM) | ≥ 32 µg/mL | > 32 µg/mL | 6.25 µM (≈ 2.03 µg/mL) | > 100 µM | 3.13 µM (≈ 1.02 µg/mL) |  | 43.5% |  |  | MIC (MRSA USA 300 (BAA-1717)): 1.01 µg/mL (≈ 3.11 µM); MIC (N. gonorrhoeae 49226): 0.16 µg/mL (≈ 0.493 µM)
O=C(Nc1nnc(-c2ccc(F)cc2)o1)N1CCc2cc(F)ccc2C1 [compound 4331] | 3.15 µg/mL (≈ 8.84 µM) | 4.45 µg/mL (≈ 12.5 µM) | > 35 µg/mL | 3.12 µM (≈ 1.11 µg/mL) | 34 µM | 12.5 µM (≈ 4.45 µg/mL) |  | <30% |  |  | MIC (N. gonorrhoeae 49226): 0.089 µg/mL (≈ 0.25 µM)
O=C(Nc1nnc(-c2ccc(F)cc2)o1)N1CCc2ccc(F)cc2C1 [compound 4332] | 5 µg/mL (≈ 14 µM) | 7.07 µg/mL (≈ 19.8 µM) | > 35 µg/mL | 3.12 µM (≈ 1.11 µg/mL) | 14.4 µM | 3.13 µM (≈ 1.12 µg/mL) |  | <30% |  |  | MIC (N. gonorrhoeae 49226): 0.089 µg/mL (≈ 0.25 µM)
C=CCN(C)C(=O)Nc1nnc(-c2ccc(F)cc2)o1 [compound 4345] | 19.5 µg/mL (≈ 70.7 µM) | 27.6 µg/mL (≈ 99.9 µM) | > 27 µg/mL | 25 µM (≈ 6.91 µg/mL) |  |  |  |  |  |  | 
O=C(Nc1nnc(-c2ccc(F)cc2)o1)N1CC=C(C(F)(F)F)CC1 [compound 4347] | 2.23 µg/mL (≈ 6.26 µM) | > 35 µg/mL | > 27 µg/mL | 2.48 µM (≈ 0.884 µg/mL) | > 100 µM | 3.1 µM (≈ 1.1 µg/mL) | 93% | <30% | < 0.01 |  | MIC (N. gonorrhoeae 49226): 0.089 µg/mL (≈ 0.25 µM); Papp (Caco-2 permeability): 21.8 ×10⁻⁶ cm/s
CC1=CCN(C(=O)Nc2nnc(-c3ccc(F)cc3)o2)CC1 [compound 4366] |  |  |  | 6.25 µM (≈ 1.89 µg/mL) | 46 µM | 25 µM (≈ 7.56 µg/mL) | 95% | 45% | 0.051 | 4 fold | Papp (Caco-2 permeability): 67.3 ×10⁻⁶ cm/s
O=C(Nc1nnc(C2CCCC2)o1)c1ccc(Oc2ccccc2)nc1 [compound 4470] |  |  |  | 7.02 µM (≈ 2.46 µg/mL) | > 100 µM | 100 µM (≈ 35 µg/mL) |  | 2% | 0.022 | 7.1 fold | 
Cc1cccc(-c2nnc(NC(=O)c3ccc(Oc4ccccc4)nc3)o2)c1 [compound 4499] |  |  |  | 1.56 µM (≈ 0.581 µg/mL) | > 100 µM | 25 µM (≈ 9.31 µg/mL) |  | 19% | < 0.01 | 20 fold | 
O=C(Nc1nnc(-c2ccc(F)cc2)o1)N1CCC(Cl)=C(Cl)C1 [compound 4737] |  |  |  | 0.78 µM (≈ 0.279 µg/mL) | > 100 µM | 6.3 µM (≈ 2.25 µg/mL) | >95% | 21% | < 0.01 | 32 fold | 
O=C(Nc1nnc(C2CCCCC2)o1)c1ccc(Oc2ccccc2)nc1 [compound 4780] |  |  |  | 1.24 µM (≈ 0.452 µg/mL) |  |  |  |  | 0.005 |  | 
O=C(Nc1nnc(C2CCCCC2)o1)c1ccc(Oc2cccc(O)c2)cc1 [compound 4801] |  |  |  | 3.13 µM (≈ 1.19 µg/mL) |  | 12.5 µM (≈ 4.74 µg/mL) | >95% |  |  | 16 fold | Papp (Caco-2 permeability): 13.2 ×10⁻⁶ cm/s
O=C(Nc1nnc(C2CCCCC2)o1)N1CCC(Cl)=C(Cl)C1 [compound 4808] |  |  |  | 6.25 µM (≈ 2.16 µg/mL) |  |  | >95% |  |  |  | Papp (Caco-2 permeability): 24.5 ×10⁻⁶ cm/s
O=C(Nc1nnc(-c2ccc(F)cc2)o1)N1CC(C(F)(F)F)C(C(F)(F)F)C1 (stereo not shown) [compound 4839] |  |  |  | 3.13 µM (≈ 1.29 µg/mL) |  | 6.25 µM (≈ 2.58 µg/mL) | >95% |  |  | 12.5 fold | 
O=C(Nc1nnc(-c2ccc(F)cc2)o1)N1CCC(C(F)(F)F)CC1 [compound 4840] |  |  |  | 6.25 µM (≈ 2.24 µg/mL) |  |  |  |  |  | 4 fold | 
CC(C)(C)C1=CCN(C(=O)Nc2nnc(-c3ccc(F)cc3)o2)CC1 [compound 4841] |  |  |  | 6.25 µM (≈ 2.15 µg/mL) |  |  |  |  |  | 8 fold | 
O=C(Nc1nnc(-c2ccc(F)cc2)o1)N1CCC2(CCC2)CC1 [compound 4842] |  |  |  | 6.25 µM (≈ 2.06 µg/mL) |  |  | 77% |  |  | 4 fold | 
CC1=C(Br)CN(C(=O)Nc2nnc(-c3ccc(F)cc3)o2)CC1 [compound 4923] |  |  |  | 0.78 µM (≈ 0.297 µg/mL) |  |  | >95% |  |  | 18 fold | 
